Data: patent US9556114B2, “Fluorinated 2-amino-4-(benzylamino)phenylcarbamate derivatives” (SciFluor Life Sciences, Inc., priority 2012, dated 2017)
“And” between values parts separate entries of the source, which are not always exact repeats. Identical values can stand only once.

Molecular target: T1, cloned KCNQ2/3 potassium channels (encoded by the human KCNQ2/3 gene and expressed in HEK293 cells) (Homo sapiens, UniProt O43525+O43526)
T1 construct: expressed in transfected cells; host or cells: HEK293 cells
Assay: Assessment of KCNQ2/3 channel activation activity, QPatch HT automatic parallel patch clamp
Assay type: cell-based
Details: for Mean % KCNQ2/3 Activation: 5 min exposure, room temperature, HEK293 cells; for Individual Data Points (% Activation): single cell values; for KCNQ2/3 activation activity compared with ezogabine: single concentration (0.1 μM)
Method: The in vitro effects of ezogabine and Compound 1A on cloned KCNQ2/3 potassium channels (encoded by the human KCNQ2/3 gene and expressed in HEK293 cells) were evaluated at room temperature using the QPatch HT® (Sophion Bioscience A/S, Denmark), an automatic parallel patch clamp system. Each test article was evaluated at 0.01, 0.1, 1, 10 and 100 μM with each concentration tested in at least two cells (n≧2). The duration of exposure to each test article concentration was 5 minutes.
The baseline for each recording was established using a 5-10 minute vehicle application (HBPS+0.3% DMSO). A single test article concentration was applied for a period of 5 minutes after the vehicle, followed by a 3 minute application of 30 μM flupirtine. Each recording ended with a supramaximal dose of 30 μM linopirdine. The % activation was calculated using the following equation by using leak subtracted responses: […]

Compound	Mean % KCNQ2/3 Activation (0.01 μM) [%]	Mean % KCNQ2/3 Activation (0.1 μM) [%]	Mean % KCNQ2/3 Activation (1 μM) [%]	Mean % KCNQ2/3 Activation (10 μM) [%]	Mean % KCNQ2/3 Activation (100 μM) [%]	KCNQ2/3 activation activity compared with ezogabine	other results
CCOC(=O)Nc1ccc(NCc2ccc(F)cc2)cc1N [ezogabine, ethyl N-[2-amino-4-[(4-fluorophenyl)methylamino]phenyl]carbamate, reference compound]	6.6	40.6	94.4	132.0	104.1		Individual Data Points (% Activation) (0.01 μM): 2.1% and 11.1%; Individual Data Points (% Activation) (0.1 μM): 49.1% and 32.2%; Individual Data Points (% Activation) (1 μM): 93.6% and 95.2%; Individual Data Points (% Activation) (10 μM): 123.7% and 140.4%; Individual Data Points (% Activation) (100 μM): 93.8% and 101.9% and 116.5%
CCOC(=O)Nc1cc(F)c(NCc2ccc(F)cc2)c(F)c1N [Compound 4A, ethyl(2-amino-3,5-difluoro-4-((4-fluorobenzyl)amino)phenyl)carbamate]						equivalent in activity to ezogabine	
CCOC(=O)Nc1cc(F)c(NCc2ccc(F)cc2)cc1N [Compound 3A, ethyl(2-amino-5-fluoro-4-((4-fluorobenzyl)amino)phenyl)carbamate]						equivalent in activity to ezogabine	
CCOC(=O)Nc1ccc(NCc2ccc(F)cc2)c(F)c1N [Compound 1A, ethyl(2-amino-3-fluoro-4-((4-fluorobenzyl)amino)phenyl)carbamate]	31.4	62.9	125.5	119.9	61.9		Individual Data Points (% Activation) (0.01 μM, listed as Compound lA): 35.9% and 26.9%; Individual Data Points (% Activation) (0.1 μM, listed as Compound lA): 98.9% and 43.3% and 46.6%; Individual Data Points (% Activation) (1 μM, listed as Compound lA): 123.5% and 127.6%; Individual Data Points (% Activation) (10 μM, listed as Compound lA): 119.7% and 120.1%; Individual Data Points (% Activation) (100 μM, listed as Compound lA): 56.6% and 67.3%
CCOC(=O)Nc1c(N)cc(NCc2ccc(F)cc2)cc1F [Compound 2A, ethyl(2-amino-6-fluoro-4-((4-fluorobenzyl)amino)phenyl)carbamate]						equivalent in activity to ezogabine	
